By IC50 is commonly meant the concentration that gives 50% inhibition. One may read the MIC as the smallest concentration in the dilution series that meets the test's criterion for growth inhibition. As a reminder, the inhibition is the change of the read-out against control, counted positive when it falls.

The subject of data set [1] is RAW264.7. Description: Cytotoxicity against mouse RAW264.7 cells assessed as cell growth inhibition incubated for 48 hrs by resazurin staining based fluorometric analysis. Type of data set: functional. The conditions noted are these: RAW264.7, 48 h. In general terms: Resazurin is reduced to fluorescent resorufin, in cell work by metabolically active cells.
Data set [2] is described as follows: Selectivity index, ratio of IC50 for cytotoxicity against mouse RAW264.7 cells to MIC for antitubercular activity against Mycobacterium tuberculosis H37Rv ATCC 27294. Type of data set: toxicity, cell-based. The settings on record: for selectivity ratio: RAW264.7 cells, read-out: Selectivity Index.
Data set [3] is described as follows: Inhibition of recombinant Mycobacterium tuberculosis MurE expressed in Escherichia coli BL21(DE3) cells using UDP-MurNAc-dipeptide as substrate incubated for 30 mins by phosphate release based colorimetric assay. Type of data set: cell-based.
Data set [4] in a line: Inhibition of Mycobacterium tuberculosis MurE expressed in Escherichia coli BL21(DE3) cells using UDP-MurNAc-dipeptide as substrate incubated for 30 mins by HPLC analysis.
For data set [5], the system named is Mycobacterium tuberculosis. In words: Antitubercular activity against Mycobacterium tuberculosis H37Rv ATCC 27294 assessed as bacterial growth inhibition. It is filed as functional.
Data set [6] is described as follows: Inhibition of recombinant Mycobacterium tuberculosis MurE expressed in Pseudomonas putida KT2442 using UDPMurNAc-L-Ala-D-Glu as substrate incubated for 30 mins by HPLC analysis.
Data set [7] deals with Mycobacterium tuberculosis. In words: Antitubercular activity against Mycobacterium tuberculosis H37Rv ATCC 27294 assessed as bacterial growth inhibition incubated for 6 days by MTT assay. Type of data set: functional. The settings on record: H37Rv ATCC 27294, 144 h, time 6 day. (In general: Formazan colour is commonly taken as a measure of viable cells.)
Data set [8] in a line: Inhibition of N-terminal His-tagged Mycobacterium tuberculosis MurE expressed in Escherichia coli BL21 (DE3) cells using UDP-GlcNAc as initial substrate pretreated with compound for 15 mins followed by substrate addition measured after 30 mins in presence of ATP by phosphate release based assay relative to control.
Data set [9] is described as follows: Inhibition of Mycobacterium tuberculosis MBP tagged MurF expressed in Escherichia coli Rosetta-gami (DE3) cells using UDP-GlcNAc as initial substrate pretreated with compound for 15 mins followed by substrate addition measured after 30 mins in presence of ATP by phosphate release based assay relative to control.
For data set [10], the system named is Mycobacterium tuberculosis. In words: Antimycobacterial activity against Mycobacterium tuberculosis H37Rv ATCC 27294 assessed as inhibition of bacterial growth incubated for 2 weeks by spot culture growth inhibition assay. Type of data set: functional. The settings on record: H37Rv ATCC 27294, 336 h.
Data set [11] concerns Mycobacterium tuberculosis. Description: Inhibition of Mycobacterium tuberculosis MurD at 100 uM relative to control.
In data set [12] the test system is Mycobacterium tuberculosis. In words: Inhibition of Mycobacterium tuberculosis MurE at 100 uM relative to control.
Data set [13] concerns Mycobacterium tuberculosis. In words: Inhibition of Mycobacterium tuberculosis MurF at 100 uM relative to control.
The test system of data set [14] is Mycobacterium tuberculosis. Description: Inhibition of Mycobacterium tuberculosis MurC at 100 uM relative to control.
Data set [15] deals with Mycobacterium tuberculosis. In words: Inhibition of N-terminal His-tagged Mycobacterium tuberculosis MurB expressed in Escherichia coli BL21 (DE3) cells using UDP-GlcNAc as initial substrate pretreated with compound for 15 mins followed by substrate addition measured after 30 mins in presence of ATP by phosphate release based assay relative to control. The conditions noted are these: time 45.0 min.

Data set [16] has as its system Mycobacterium tuberculosis. In words: Inhibition of N-terminal His-tagged Mycobacterium tuberculosis MurA expressed in Escherichia coli BL21 (DE3) cells using UDP-GlcNAc as initial substrate pretreated with compound for 15 mins followed by substrate addition measured after 30 mins in presence of ATP by phosphate release based assay relative to control. The settings on record: time 45.0 min.

In data set [17] the test system is Mycobacterium tuberculosis. In words: Inhibition of N-terminal His-tagged Mycobacterium tuberculosis MurC expressed in Escherichia coli BL21 (DE3) cells using UDP-GlcNAc as initial substrate pretreated with compound for 15 mins followed by substrate addition measured after 30 mins in presence of ATP by phosphate release based assay relative to control. The conditions noted are these: time 45.0 min.

The subject of data set [18] is Mycobacterium tuberculosis. In words: Inhibition of Mycobacterium tuberculosis MBP tagged MurD expressed in Escherichia coli Rosetta-gami (DE3) cells using UDP-GlcNAc as initial substrate pretreated with compound for 15 mins followed by substrate addition measured after 30 mins in presence of ATP by phosphate release based assay relative to control. The settings on record: time 45.0 min.

Data set [19] can be described thus: Inhibition of Mycobacterium tuberculosis MurE expressed in Escherichia coli BL21(DE3) cells by phosphate release based colorimetric assay.
Data set [20] deals with Mycobacterium tuberculosis. Description: Antitubercular activity against Mycobacterium tuberculosis H37Rv ATCC 9360 assessed as bacterial growth inhibition incubated for 2 weeks by spot culture growth inhibition assay. It is filed as functional. The settings on record: H37Rv ATCC 9360, 336 h.
The nature of data set [21]: Inhibition of Mycobacterium tuberculosis MurE using UDPMurNAc-L-Ala-D-Glu as substrate incubated for 30 mins by phosphate release based colorimetric assay.
Data set [22] has as its system RAW264.7. In words: Cytotoxicity against mouse RAW264.7 cells assessed as cell growth inhibition. Type of data set: functional, cell-based.

Converted amounts (≈) assume the structure as drawn. “And” between values parts separate entries of the source, which are not always exact repeats. Identical values can stand only once.

Consider `CCCCCCCC/C=C/C1CC(=O)c2ccccc2N1C` (configuration not stated), for which the IC50 in the data set on RAW264.7 [1] came to 24 µg/mL (≈ 80.1 µM); in [3], 70 µM; in data set [4], 207 µM. The selectivity ratio in [2] worked out at 1. In addition, the MIC in data set [5] worked out at 84 µM (≈ 25.2 µg/mL).
For `Oc1ccc(Br)c2c1C(Cc1cccc3c1OCO3)NCC2` (configuration not stated), the IC50 in data set [6] was < 111 µM.
Turning to `COc1c(O)c2c3c(c1OC)CCN[C@H]3Cc1cc3c(cc1-2)OCO3.Cl`, the MIC in data set [7] was 4 µg/mL. The IC50 was 47 µg/mL with RAW264.7 [1], 57 µM in [3], 61.6 µM in [8] and 45.4 µM in [9]. Also, the “Selectivity Index” value in data set [2] worked out at 12.
Consider `Oc1ccc(Br)c2c1C(c1cccc3c1OCO3)NCC2` (configuration not stated), for which the half-inhibitory concentration (IC50) in [6] was < 111 µM.
With `CCCCCCCCCCC/C=C/C1CC(=O)c2ccccc2N1C` (configuration not stated), the IC50 in the data set on RAW264.7 [1] stood at 24 µg/mL (≈ 70.3 µM); in [3] it was 52 µM; in data set [4] it was 140 µM. For the same molecule, in data set [2], the selectivity ratio stood at 1. The MIC in data set [5] came to 58.9 µM (≈ 20.1 µg/mL).
Consider `Oc1ccc(I)c2c1C(Cc1cccc3c1OCO3)NCC2` (configuration not stated), for which the IC50 in data set [6] is < 111 µM. Besides, in [10], the MIC came to 71 µM (≈ 29.1 µg/mL).
Turning to `CC(=O)N[C@H]1[C@H](OCc2cn(C[C@@H]3O[C@H](n4ccc(=O)[nH]c4=O)[C@@H](O)[C@H]3O)nn2)O[C@H](Cn2cc(CO[C@@H]3O[C@H](CO)[C@@H](O)[C@H](O)[C@H]3NC(C)=O)nn2)[C@@H](O)[C@@H]1O`, the inhibition in data set [11] stood at 5.2%; in data set [12] it was 12.5%; in data set [13] it was 48.9%; in data set [14] it was 1%.
For the molecule `CCCCCCCC/C=C\CCCCC1CC(=O)c2ccccc2N1C` (configuration not stated), the IC50 is 24 µg/mL (≈ 67.5 µM) in the data set on RAW264.7 [1], 36 µM in [3] and 95 µM in [4]. For the same molecule, in data set [2], the selectivity ratio worked out at 1. In data set [5], the MIC was 28.3 µM (≈ 10.1 µg/mL).
With `CCCCCCCCCC/C=C/C1CC(=O)c2ccccc2N1C` (configuration not stated), the figures for the IC50 (in the data set with RAW264.7 [1]; in data set [3]; in data set [4]) were 24 µg/mL (≈ 73.3 µM), 72 µM and 187 µM, respectively. In data set [2], the selectivity ratio came out at 1. In addition, the MIC in data set [5] is 30.7 µM (≈ 10.1 µg/mL).
For `COc1c(O)c2c3c(c1OC)CCN[C@H]3Cc1cc3c(cc1-2)OCO3` [listing 1 of 2 here], in data set [7], the MIC was 64 µg/mL (≈ 187 µM). Moreover, the IC50 in the data set on RAW264.7 [1] is 62 µg/mL (≈ 182 µM); in [3], 67 µM and < 100 µM. For the same molecule, in data set [2], the “Selectivity Index” value came to 0.97.
As for `COc1c(O)c2c3c(c1OC)CCN[C@H]3Cc1cc3c(cc1-2)OCO3` [listing 2 of 2 here], the inhibition in data set [15] is > 100%; in data set [16], 75%; in data set [17], 66%; in [18], 88%.
For the molecule `COc1ccc(Br)c2c1C(c1cccc3c1OCO3)NCC2` (configuration not stated), the IC50 in data set [6] worked out at 165 µM. For the same molecule, the MIC in [10] was 106 µM (≈ 38.4 µg/mL).
Regarding `CCCCCCCCCC#CCC1CC(=O)c2ccccc2N1CCCC` (configuration not stated), inhibition in [19] was half-maximal at 235 µM (IC50).
As for `COC(=O)N1CCc2c(OC)c(OC)c(O)c3c2[C@@H]1Cc1cc2c(cc1-3)OCO2`, in data set [7], the minimal inhibitory concentration (MIC) came out at 128 µg/mL (≈ 320 µM). The IC50 in the data set with RAW264.7 [1] was 67 µg/mL (≈ 168 µM); in [3], 75 µM and < 100 µM. Also, the selectivity ratio in data set [2] was found to be 0.52.
For `NNC(=O)c1ccncc1` [ISONIAZID], the IC50 in [3] and in data set [6] was > 1000 µM each time.
In the case of `C=CC(C)(C)C1C(=O)CC(c2ccccc2)OC1OC` (configuration not stated), the MIC in [20] is 75 µg/mL (≈ 273 µM). The same molecule registered an IC50 in [21] of 320 µM.
`COc1c(O)c2c3c(c1OC)CCNC3Cc1cc3c(cc1-2)OCO3` (configuration not stated): the IC50 came out at 820 µM in [6] and 352 µM in the data set on RAW264.7 [22]. In data set [10], the MIC was determined as 84 µM (≈ 28.7 µg/mL).
In the case of `CC(=O)N[C@H]1[C@H](OCc2cnnn2C[C@H]2O[C@@H](n3ccc(=O)[nH]c3=O)[C@H](O)[C@@H]2O)O[C@H](Cn2cc(C(N)=O)nn2)[C@@H](O)[C@@H]1O`, the inhibition in data set [11] was found to be 23%; in data set [12] it was 6.1%; in data set [13], 41.8%; in data set [14], 12.1%.
As to `CCCCCCCCC/C=C\CCCC1CC(=O)c2ccccc2N1C` (configuration not stated), the IC50 was 24 µg/mL (≈ 67.5 µM) in the data set on RAW264.7 [1]; 52 µM in data set [3]; 159 µM in [4]; 17 µM in [8]; 25.8 µM in data set [9]. Besides, the selectivity ratio in data set [2] turned out to be 1. Also, the inhibition was > 100% in [15], > 100% in data set [16], 73% in data set [17] and 85% in data set [18]. The MIC in data set [5] is 70.7 µM (≈ 25.1 µg/mL).
In data set [19], `CCCCCCCCCCCC#CCC1CC(=O)c2ccccc2N1CCCC` (configuration not stated) showed an IC50 of 200 µM.

(Values after ChEMBL document CHEMBL5096189, “The Mur Enzymes Chink in the Armour of Mycobacterium tuberculosis cell wall” (Eur J Med Chem, 2021).)
